“Also recorded” adds a separate entry of the source. No end group written: not given here.
Tests used:
TLR9 signaling [1] = experiment: ODN 1668-induced cytokine mRNA expression in BMDM (quantitative real time PCR); format: cell-based, mouse
Procedure: (§1) The cDNA obtained was amplified with gene-specific primers for mouse HPRT, TNFα, IL-10, IL-12-p40, or IL-6 and Fast SYBR Green™ master mix (Applied Biosystemsm) as previously described.
Mouse BMDMs were incubated in the presence of a 10, 20 or 40 μM decoy peptide for 30 minutes prior to stimulation with ODN 1668 (1 μM). […] Data represent the means±SEM of at least three independent experiments. The statistical significance of changes in cytokine mRNA was determined by a one-way ANOVA test; *p<0.001. Peptides 9R3 and 9R34 have overlapping sequences (see Table 1).
To investigate inhibition of TLR9 signaling by 9R34 analogues, the following work was performed. Mouse BMDMs were incubated in the presence of a 10, 20 or 40 μM decoy peptide for 30 minutes prior to stimulation with ODN 1668 (1 μM). Cytokine mRNA expression was measured 1 hour after ODN 1668 challenge and normalized to the expression of HPRT. See also Table 1. Data represent means±SEM of at least three independent experiments.

TLR9 signaling [2] = experiment: ODN 1668-induced cytokine secretion in BMDM supernatants (ELISA); format: cell-based, mouse; details: 5 hour supernatants, ODN 1668 1 μM
Procedure: (§2) Mouse TNFα and IL-12-p40 concentrations were measured in supernatants using ELISA kits from Biolegend™, Inc.
BMDMs were incubated in the presence of a decoy peptide for 30 minutes prior to stimulation with ODN 1668 (1 μM). The statistical significance of changes in cytokine levels was determined by the one-way ANOVA test; *p<0.01.

myDDosome = details: BMDM pretreated with CPDP; MyD88 IP, IRAK4 blot
Procedure: Four million BMDMs per well were plated in 6-well plates and treated with CPDP for 30 minutes prior to stimulation with ODN 1668 for 90 minutes. Cells were lysed in 600 p L of buffer containing 20 mM HEPES (pH 7.4), 150 mM NaCl, 10 mM NaF, 2 mM Na3VO4, 1 mM EDTA, 1 mM EGTA, 0.5% Triton X-100, 0.1 mM DTT, and protease inhibitor cocktail (Roche™). Cell extracts were incubated overnight with 1 μg of anti-mouse MyD88 antibody (AF3109) (R&D Systems™, followed by a 4-hour incubation with 20 μL protein G Sepharose beads (ThermoFisherm Scientific). The beads were then washed 3 times with 500 μL of lysis buffer and boiled in 60 μL of Laemmli sample buffer (Bio-Rad™). Cell extracts were electrophoresed on 10% acrylamide gel by SDS-PAGE and transferred to PVDF membrane (Bio-Rad™). Rabbit anti-MyD88 IgG was purchased from Cell Signaling™. Mouse anti-IRAK4 IgG was obtained from Abcam™. Alkaline phosphatase-conjugated secondary antibodies against mouse and rabbit IgG were purchased from Cell Signaling™. The stabilized substrate for alkaline phosphatase was from Promega™.
TLR stimulation causes formation of myDDosome, a signaling complex composed through interactions of IRAK and MyD88 death domains. To test if peptides inhibit myDDosome formation, MyD88 was immunoprecipitated from lysates of ODN-stimulated BMDM and the precipitates analyzed for IRAK4 presence. BMDM were lysed and lysates immunoprecipitated with anti-MyD88 Ab and immune complexes assessed with anti-IRAK4 Ab 3 hours after cell treatment with ODN 1668.

TLR1/2 signaling = experiment: TNFα mRNA in BMDM stimulated with Pam3C; format: cell-based, mouse; details: peptide 40 μM; P3C 0.33 μM; 1 h
Procedure: as §1
(§3) CPDPs 9R34 and 9R11 were examined for inhibition of TLR1/2, TLR4, and TLR7 signaling. BMDMs were stimulated with Pam3C, E. coli LPS, or R848 and TNFαmRNA was measured 1 hour after stimulation. Mouse BMDM were treated with 40 μM of the indicated peptides for 30 minutes prior to stimulation with ODN 1668 (1 μM), E. coli LPS (0.1 μg/mL), R848 (2.85 μM), or P3C (0.33 μM). R848 and P3C were used to specifically activate TLR7 and TLR2 signaling, respectively. TNFαmRNA expression was measured 1 h after ODN 1668 challenge and normalized to the expression of HPRT. See results in FIG. 8A, FIG. 8B, and FIG. 8C. […] The statistical significance of changes was determined by a one-way ANOVA test; *p<0.01.

TLR7 signaling = experiment: TNFα mRNA in BMDM stimulated with R848; format: cell-based, mouse; details: peptide 40 μM; R848 2.85 μM; 1 h
Procedure: as §1, §3

TLR4 signaling = experiment: LPS-induced TNFα secretion in BMDM (ELISA); format: cell-based, mouse; details: peptide 20 or 40 μM; E. coli LPS 0.1 μg/mL; 5 hour BMDM supernatants
Procedure: as §2
BMDM were treated with 20 or 40 μM of 9R34 for 30 minutes prior to stimulation with E. coli LPS (0.1 μg/mL). TNFαconcentration in supernatants was evaluated by ELISA 5 hours after cell stimulation. See results in FIG. 9. Data represent means±SEM of three independent experiments.

TLR9-induced lethality = experiment: Survival of D-Gal pretreated mice after ODN 1668; format: in vivo, C57Bl/6J mice; details: ODN 1668 lower dose 3.93 nmol/mouse; peptide 200 nmol/mouse i.p.
Procedure: Systemic cytokine levels were measured in plasma samples obtained 1, 3, and 5 hours after intraperitoneal (i.p.) administration of 7.86 nmol (50 μg) of ODN 1668 or 67 nmol of Pam3C per mouse, using ELISA kits from Biolegend™ Inc. CPDP were dissolved in PBS and administered i.p. at the dose of 200 nmol per mouse 1 hour before administration of a TLR agonist. For survival experiments, mice were sensitized to TLR9 agonists by i.p. injection of 20 mg of D-Gal 30 minutes before administration of peptides or PBS. ODN 1668 was used at the doses of 3.93 or 7.86 nmol/mouse (25 or 50 μg/mouse) 1.5 hours after D-Gal. Animal survival was monitored for 50 hours. All agents were administered i.p. in 500 μL volume of PBS. Animals had free access to food and water during the observation period. All animal experiments were conducted in accordance with the national guidelines for the care and use of laboratory animals under a protocol that was approved by the UMB IACUC.
With the exception for LPS, administration of a purified TLR agonist is not lethal to mice. Mice, however, can be sensitized to TLR agonists by pretreatment with D-galactosamine (D-Gal). Survival of C57Bl/6J mice pretreated with D-galactosamine and challenged with different doses of ODN 1668 was tested. Mice were first administered with D-Gal intraperitoneally at the dose of 20 mg/mouse. Thirty minutes later mice were mock-treated with PBS or treated with a CPDP at the dose 200 nmol/mouse. ODN 1668 was administered 1 hour after peptide treatment at the dose of 3.93 or 7.86 nmol/mouse.

TLR9 signaling [3] = experiment: TNFα mRNA in BMDM at varying ODN 1668 concentration, comparison with INH-18; format: cell-based, mouse; details: inhibitor 30 min before varying ODN 1668, 1 hour
Procedure: To investigate inhibition of TLR9 signaling by 9R34 further, the following work was conducted. Mouse BMDMs were treated with the effective dose of either INH-18 (an ODN-based, competitive inhibitor of TLR9, commercially available through Invivogen™) or 9R34, 30 minutes prior to stimulation with varying concentration of ODN 1668. TNFα mRNA expression was measured 1 hour after ODN 1668 challenge and normalized to the expression of HPRT.

[4] = Stability and solubility of peptide solutions
[5] = BMDM, peptide 10, 20 or 40 μM 30 min before ODN 1668 (1 μM), 1 hour, normalized to HPRT

## GRWALRLCLEERD (also: antennapedia vector attached) [Peptide 9R34]
TLR9 signaling [1]; BMDM, peptide 10, 20 or 40 μM 30 min before ODN 1668 (1 μM), 1 hour after stimulation, normalized to HPRT
  TNFα mRNA expression: significantly suppressed
TLR9 signaling [1]; [5]
  IL-10 mRNA expression: significantly suppressed
  IL-12-p40 mRNA expression: significantly suppressed
TLR9 signaling [1]; BMDM, peptide 10, 20 or 40 μM, ODN 1668 1 μM
  inhibition of TLR9 signaling (ODN 1668-induced cytokine mRNA, overall): most potent inhibitor; also recorded: inhibit TLR9 signaling; also recorded: inhibited TLR9 signaling more potently than 9R3
TLR9 signaling [1]; peptide 10 or 20 μM
  expression of all tested cytokines at lower peptide concentrations: inhibited expression of all tested cytokines
TLR9 signaling [2]; peptide 20 μM
  secretion of IL-12-p40: also effective
TLR9 signaling [2]; peptide 40 μM
  production/secretion of TNFα: decreased the production of TNFα
  secretion of IL-12-p40: reduced secretion
myDDosome
  ODN 1668-induced myDDosome formation: prevented ODN 1668-induced myDDosome formation
TLR1/2 signaling
  signaling induced by TLR1/2 agonist (TNFα mRNA): did not inhibit
TLR7 signaling
  signaling induced by TLR7 agonist (TNFα mRNA): did not inhibit
TLR4 signaling
  LPS-induced TNFα secretion: did not reduce
TLR9-induced lethality
  protection of D-Gal pretreated mice (survival): full protection
TLR9 signaling [3]
  TNFα/HPRT mRNA expression ratio with increased concentrations of agonistic ODN: efficient inhibition in a wider range of agonist concentrations
[4]
  stability of millimolar stock solutions: unstable
  stability of peptide solutions in the presence of high protein concentrations: also unstable

Source: patent publication US12084521B2, “TLR9 inhibitors to suppress inflammatory response to pathogens” (University Of Maryland, Baltimore, priority 2018, dated 2024)
